Data on one compound can be found in PMC12549899 (Nature Communications, 2025).

Structures are written as SMILES. Positions count from the first letter of the chain named.

For assay [1], the target named is T1, DrOTOP1 mutants targeting the C-domain pocket (Danio rerio, UniProt Q7ZWK8, G346F).
T1 construct: A previously generated codon-optimized full-length DrOTOP1[8]; (UniProt: Q7ZWK8) construct; expressed in transfected cells; host or cells: HEK-293 (CRL-1573, ATCC)
T1 sequence (Q7ZWK8 1-586 G346F): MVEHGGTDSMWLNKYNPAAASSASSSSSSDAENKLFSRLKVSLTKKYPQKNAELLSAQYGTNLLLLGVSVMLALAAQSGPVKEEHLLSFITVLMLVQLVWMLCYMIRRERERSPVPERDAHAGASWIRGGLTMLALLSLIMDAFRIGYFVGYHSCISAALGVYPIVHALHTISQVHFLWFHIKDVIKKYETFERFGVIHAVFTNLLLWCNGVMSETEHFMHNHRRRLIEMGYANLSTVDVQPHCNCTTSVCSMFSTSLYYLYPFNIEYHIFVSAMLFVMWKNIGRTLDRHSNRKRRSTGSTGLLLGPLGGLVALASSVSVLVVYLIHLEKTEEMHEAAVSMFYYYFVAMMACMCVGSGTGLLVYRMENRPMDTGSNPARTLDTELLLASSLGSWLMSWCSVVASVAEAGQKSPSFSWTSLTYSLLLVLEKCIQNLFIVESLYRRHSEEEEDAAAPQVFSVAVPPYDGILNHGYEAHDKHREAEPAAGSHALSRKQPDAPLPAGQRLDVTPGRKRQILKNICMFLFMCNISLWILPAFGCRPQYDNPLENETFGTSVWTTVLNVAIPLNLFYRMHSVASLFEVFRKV
Kind of assay: Whole-cell patch-clamp, inhibition of acid-evoked currents, other DrOTOP1 C-domain pocket mutants (e.g. G346F, Y422F, L531F, I565W/G346F; Supplementary Fig. 5). The class given is cell-based, zebrafish (Danio rerio). The following applies: 100 µM; DrOTOP1 G346F; compared with WT. The text has this:
(§1) To experimentally verify whether C11 and C2.2 bind in the C-domain pocket as predicted, we used their docked poses to guide mutagenesis. The predicted interactions for C11 and C2.2 include π-stacking with F342 and Y422, potential H-bonding with Q542, N568, and R572 (Fig. 2J, K and Supplementary Fig. 5A), and hydrophobic packing. We generated single-residue mutants of these and other residues in DrOTOP1 that were expected to disrupt specific molecular interactions or to introduce a bulky tryptophan residue (W) to produce steric hindrance.
(§2) We next tested a subset of these mutants for sensitivity to C2.2, focusing on those that could occlude the C-domain pocket. […]
(§3) Whole-cell patch-clamp recording was performed as previously described[6],[22],[25]. Recordings were made with an Axopatch 200B amplifier, digitized with a Digidata 1322a 16-bit data acquisition system, acquired with pClamp 8.2 and analyzed with Clampfit 10 (Molecular Devices). […]
(§4) All data are presented as mean ± SEM unless otherwise noted, and each data point represents an independent replicant. Inhibition of compounds was quantified as ((I2peak-I1)/(I2peak))*100, where I1 is the current immediately before wash-off and I2peak is the maximum recovered current (Supplementary Fig. 2). Hill coefficients were determined by the following equation: Y = Bmax*X^h/(Kd^h + X^h). […]
A general note: The patch-clamp technique gives a direct electrical read-out from membranes.

In assay [2] the target is T2, DrOTOP1 mutants targeting the C-domain pocket (Danio rerio, UniProt Q7ZWK8, G346F/I565W).
T2 construct: A previously generated codon-optimized full-length DrOTOP1[8]; (UniProt: Q7ZWK8) construct; expressed in transfected cells; host or cells: HEK-293 (CRL-1573, ATCC)
T2 sequence (Q7ZWK8 1-586 G346F/I565W): T1 sequence (Q7ZWK8 1-586 G346F) with I565W
The assay is described as above. The conditions noted are these: DrOTOP1 I565W / G346F; Supp. Fig 5C. The class given is cell-based, zebrafish (Danio rerio).
Text: as §1, §2, §3, §4

In the case of `O=C(/C(=N\O)c1ccccc1)c1ccccc1` [C11, benzil monoxime], the Inhibition of currents result in assay [1] was “slightly reduced inhibition”. The “inhibition of acid-evoked current, mean (Mean of column R)” value in assay [2] came to 28.
